Experimental data reported in ChEMBL document CHEMBL1136093, “A four component coupling strategy for the synthesis of D-phenylglycinamide-derived non-covalent factor Xa inhibitors” (Bioorg Med Chem Lett, 2003).

What was measured:
[1] = molecular target: Coagulation factor X (Homo sapiens) (UniProt P00742); test: Binding ability to coagulation factor Xa, expressed as apparent association constant
[2] = organism: Homo sapiens; test: Concentration required to double the time of clot formation in reconstituted human plasma, using prothrombin time assay; assay type: functional, organism-based

Sequence of Coagulation factor X (Homo sapiens) (P00742 41-179 limits assumed): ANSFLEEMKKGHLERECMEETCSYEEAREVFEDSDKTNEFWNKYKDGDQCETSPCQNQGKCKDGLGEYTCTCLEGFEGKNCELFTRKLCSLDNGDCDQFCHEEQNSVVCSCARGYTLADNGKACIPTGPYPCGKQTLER
Sequence of Coagulation factor X (Homo sapiens) (P00742 235-488 limits assumed): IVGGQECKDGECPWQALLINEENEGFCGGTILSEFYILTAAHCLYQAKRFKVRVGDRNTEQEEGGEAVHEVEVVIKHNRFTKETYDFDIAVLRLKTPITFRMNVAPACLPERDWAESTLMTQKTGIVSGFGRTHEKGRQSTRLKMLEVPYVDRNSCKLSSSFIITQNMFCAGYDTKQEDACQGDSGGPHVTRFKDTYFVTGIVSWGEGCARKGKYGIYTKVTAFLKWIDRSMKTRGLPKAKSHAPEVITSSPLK

Structure (SMILES)	K ass [1]	Concentration [2]
O=C(NC(C(=O)NCC1CCN(C2CCCC2)CC1)c1cccc2ccccc12)c1ccc2c(Cl)c[nH]c2c1 (stereo not drawn)	2.5e+08 l M-1	3.8 µM
O=C(NC(C(=O)NCC1CCN(C2CCCC2)CC1)c1nccs1)c1ccc2c(Cl)c[nH]c2c1 (stereo not drawn)	3.8e+08 l M-1	0.79 µM
O=C(NC(C(=O)NCC1CCN(C2CCCC2)CC1)c1cnc2ccccc2c1)c1ccc2c(Cl)c[nH]c2c1 (stereo not drawn)	200000 l M-1	–
COc1ccc(C(=O)NC(C(=O)NCC2CCN(C(C)C)CC2)c2ccccc2OCc2ccccc2)cc1 (stereo not drawn)	2.6e+06 l M-1	–
O=C(NC(C(=O)NCC1CCN(C2CCCC2)CC1)c1ccc2ccccc2c1)c1ccc2c(Cl)c[nH]c2c1 (stereo not drawn)	7.9e+07 l M-1	4.1 µM
COc1ccc(C(=O)NC(C(=O)NCC2CCN(C(C)C)CC2)c2ccoc2)cc1 (stereo not drawn)	200000 l M-1	–
COc1ccc(C(=O)NC(C(=O)NCC2CCN(C(C)C)CC2)c2ccsc2)cc1 (stereo not drawn)	880000 l M-1	–
COc1ccc(C(=O)NC(C(=O)NCC2CCN(C(C)C)CC2)c2cccs2)cc1 (stereo not drawn)	1.1e+06 l M-1	–
COc1ccc(C(=O)NC(C(=O)NCC2CCN(C(C)C)CC2)c2ccccc2Oc2ccccc2)cc1 (stereo not drawn)	1.3e+06 l M-1	–
O=C(N[C@@H](C(=O)NCC1CCN(C2CCCC2)CC1)c1ccccc1)c1ccc2c(Cl)c[nH]c2c1	8.2e+08 l M-1	–
COc1ccc(C(=O)NC(C(=O)NCC2CCN(C(C)C)CC2)c2ncc[nH]2)cc1 (stereo not drawn)	210000 l M-1	–
COc1ccc(C(=O)NC(C(=O)NCC2CCN(C(C)C)CC2)c2cnc3ccccc3c2)cc1 (stereo not drawn)	50000 l M-1	–

Further lines, with some results ahead:

K ass [1]	Structure (SMILES)	Concentration [2]
3.1e+06 l M-1	COc1ccc(C(=O)NC(C(=O)NCC2CCN(C(C)C)CC2)c2ccccc2C(F)(F)F)cc1 (stereo not drawn)	–
1.3e+06 l M-1	COc1ccc(C(=O)NC(C(=O)NCC2CCN(C(C)C)CC2)c2ccccc2O)cc1 (stereo not drawn)	–
1.9e+06 l M-1	COc1ccc(C(=O)NC(C(=O)NCC2CCN(C(C)C)CC2)c2ccccc2OC)cc1 (stereo not drawn)	–
2.9e+06 l M-1	COc1ccc(C(=O)NC(C(=O)NCC2CCN(C(C)C)CC2)c2ccccc2SC)cc1 (stereo not drawn)	–
750000 l M-1	COc1ccc(C(=O)NC(C(=O)NCC2CCN(C(C)C)CC2)c2ccccc2N)cc1 (stereo not drawn)	–
360000 l M-1	COc1ccc(C(=O)NC(C(=O)NCC2CCN(C(C)C)CC2)c2ccco2)cc1 (stereo not drawn)	–
1.1e+06 l M-1	COc1ccc(C(=O)NC(C(=O)NCC2CCN(C(C)C)CC2)c2ccccc2N(C)C)cc1 (stereo not drawn)	–
710000 l M-1	COc1ccc(C(=O)NC(C(=O)NCC2CCN(C(C)C)CC2)c2ccccc2)cc1 (stereo not drawn)	–
4.1e+06 l M-1	COc1ccc(C(=O)NC(C(=O)NCC2CCN(C(C)C)CC2)c2ccccc2I)cc1 (stereo not drawn)	–
2.5e+06 l M-1	COc1ccc(C(=O)NC(C(=O)NCC2CCN(C(C)C)CC2)c2ccccc2C)cc1 (stereo not drawn)	–
4.2e+06 l M-1	COc1ccc(C(=O)NC(C(=O)NCC2CCN(C(C)C)CC2)c2ccccc2[N+](=O)[O-])cc1 (stereo not drawn)	–
1.3e+06 l M-1	COc1ccc(C(=O)NC(C(=O)NCC2CCN(C(C)C)CC2)c2ccnc3ccccc23)cc1 (stereo not drawn)	–
4.1e+06 l M-1	COc1ccc(C(=O)NC(C(=O)NCC2CCN(C(C)C)CC2)c2ccccc2OC(F)(F)F)cc1 (stereo not drawn)	–
5.1e+06 l M-1	COc1ccc(C(=O)NC(C(=O)NCC2CCN(C(C)C)CC2)c2ccccc2Cl)cc1 (stereo not drawn)	–
1.7e+06 l M-1	COc1ccc(C(=O)NC(C(=O)NCC2CCN(C(C)C)CC2)c2ccccc2SC(C)(C)C)cc1 (stereo not drawn)	–
2e+06 l M-1	COc1ccc(C(=O)NC(C(=O)NCC2CCN(C(C)C)CC2)c2ccccc2F)cc1 (stereo not drawn)	–
2.8e+06 l M-1	CCOc1ccccc1C(NC(=O)c1ccc(OC)cc1)C(=O)NCC1CCN(C(C)C)CC1 (stereo not drawn)	–
4.6e+06 l M-1	COc1ccc(C(=O)NC(C(=O)NCC2CCN(C(C)C)CC2)c2ccccc2Br)cc1 (stereo not drawn)	–
